Measurements from PMC8541992, “Safety, pharmacokinetics, and preliminary efficacy of the PARP inhibitor talazoparib in Japanese patients with advanced solid tumors: phase 1 study” (Investigational New Drugs, 2021).
Read-outs that look alike come from different tables or passages of the source.

Assays:
[1] = system: locally advanced or metastatic solid tumors; assay: Phase 1 study: antitumor activity, investigator assessment (RECIST v.1.1); format: in vivo, human (Japanese patients)
Method: Antitumor activity was evaluated using radiological tumor assessments of all known or suspected disease sites. Imaging could include chest, abdomen, and pelvis computed tomography (CT) or magnetic resonance imaging (MRI) scans. Brain scans and bone scans were performed at baseline if disease was suspected and during the study as appropriate. CT or MRI scans were conducted at baseline (screening visit), on Day 1 (±7 days) of Cycle 2, and every other cycle thereafter, whenever disease progression was suspected, and at the time of withdrawal from treatment (if not performed within 6 weeks). Tumor response (unconfirmed) was assessed using Response Evaluation Criteria in Solid Tumors (RECIST) v.1.1, and included best overall response (complete response [CR], partial response [PR], stable disease [SD], progressive disease [PD], and non-CR/non-PD), objective response, defined as the sum of CR and PR, and overall disease control rate, defined as the sum of CR, PR, SD, and non-CR/non-PD.

[2] = system: Japanese patients with locally advanced or metastatic solid tumors; assay: Phase 1 dose-escalation study: safety (DLTs, TEAEs)
Excerpt: This is an ongoing open-label, non-randomized, phase 1 study of the PARP inhibitor, talazoparib, in Japanese patients with locally advanced or metastatic solid tumors regardless of mutations in DDR-related genes who are resistant to standard therapies or for whom no standard therapy is available (ClinicalTrials.gov NCT03343054). The study comprises a dose-escalation phase and a dose-expansion phase conducted in 8 Japanese centers (Supplementary Fig. 1). The objective of the initial dose-escalation phase was to investigate the safety, PK (single-dose and steady-state), and preliminary antitumor activity of single-agent talazoparib in sequential cohorts of patients with advanced solid malignancies. A modified 3 + 3 dose-escalation scheme was used to determine the recommended phase 2 dose in Japanese patients; up to 3 patients could be enrolled simultaneously in a cohort although sometimes due to logistical or clinical reasons more than 3 but no more than 9 patients were enrolled at each dose level. Successive cohorts of patients received escalating doses of talazoparib on an outpatient basis starting from 0.75 mg/day. To understand the single-dose safety and single-dose PK assessments of talazoparib, a lead-in period preceding the continuous daily doses was included. Data for the dose-escalation phase are reported here (data cut-off January 2020).
Eligible patients were assigned to one of two talazoparib treatment groups (dose levels). Successive cohorts of patients received talazoparib dosed orally at 0.75 mg QD (3 capsules of 0.25 mg) or 1 mg QD (4 capsules of 0.25 mg), with or without food, on an outpatient basis according to a modified 3 + 3 dose-escalation scheme. On Day −7 (lead-in visit), patients received a single dose of talazoparib, followed by continuous daily dosing from Day 1 of each 28-day cycle. Patients continued to receive talazoparib until either disease progression, patient refusal of study treatment, or unacceptable toxicity. Dose modifications were allowed depending on the type and severity of the toxicity encountered. To continue talazoparib, patients were required to have adequate bone marrow functions (hemoglobin ≥8.0 g/dL, absolute neutrophil count ≥1000/mm^3, platelets ≥50,000/mm^3). If grade 1 or grade 2 treatment-related toxicity occurred (other than renal impairment), dose interruption or dose reduction were not required. Daily dosing was paused for grade ≥3 adverse events (AEs) considered related to talazoparib. Supportive care including blood products for hematologic toxicities was allowed as appropriate per local guidance. Talazoparib dosing could resume at the next lower dose level (e.g., from 1.0 mg/day to 0.75 mg/day; 0.75 mg/day to 0.5 mg/day; 0.5 mg/day to 0.25 mg/day) when toxicity resolved to grade 1 or returned to baseline. […]

PARP on DNA = system: PARP on DNA; set-up: method as in PMID 24356813; details: compared with other PARP inhibitors under investigation or approved in Japan; cited from earlier work
PARP = system: PARP; set-up: method as in PMID 24356813, PMID 31296812; details: PARP inhibition; read-out: Half-maximal inhibitory concentration; cited from earlier work
[3] = Phase 1 study: single- and multiple-dose plasma pharmacokinetics; format: in vivo, human (Japanese patients); details: for Rac (ratio of AUCtau after multiple doses/AUCtau after single dose) / Rss (ratio of AUCtau after multiple doses/AUCinf after single dose) / Tmax: median (range); for Cmax / AUC / AUC(0-inf) / Cmin: geometric mean (geometric %CV); for half-life: read-out: t1/2 (terminal half-life) (converted); for AUC: AUCtau = AUC24
Method: PK parameters following single- and multiple-dose administration of single-agent talazoparib, included talazoparib area under the plasma concentration-time curve from 0 h to infinity (AUCinf; single dose) and during the dosing interval ([NT], multiple dosing); maximum observed plasma concentration (Cmax); lowest plasma concentration observed during the dosing interval (Cmin); elimination half-life (t1/2); time to Cmax (Tmax); ratio of [NT] after multiple doses/[NT] after single dose (Rac); and ratio of [NT] after multiple doses/AUCinf after single dose (Rss). PK parameters were calculated for each patient using non-compartmental analysis of plasma concentration-time data. Blood samples were collected pre-dose on Day -7, and on Days 1, 15, and 22 of Cycle 1, and Day 1 of Cycles 3 and 4. Post-dose blood samples were also collected at 0.5, 0.75, 1, 2, 3, 4, 6, 8, 10, and 24 h (Day -7 and Day 22 of Cycle 1 only) and at 48, 72, and 96 h (Day -7 only). […] PK parameters and safety data were summarized descriptively.

[4] = system: non-Japanese patients with advanced breast cancer; set-up: method as in PMID 32162822; details: EMBRACA study; cited from earlier work
[5] = system: HER2-negative advanced breast cancer with a germline BRCA1/2 mutation; set-up: method as in PMID 30110579, PMID 30124753; details: 1 mg QD versus chemotherapy; 95% CI 0.41 to 0.71, P < 0.001; cited from earlier work
[6] = 0.75 mg QD oral, N = 3, listed as talazoparib
[7] = 1 mg QD oral, N = 6, listed as talazoparib
[8] = plasma, multiple dose 0.75 mg QD oral, N = 3

SMILES: Cn1ncnc1[C@H]1c2n[nH]c(=O)c3cc(F)cc(c23)N[C@@H]1c1ccc(F)cc1 [Talazoparib, talazoparib]
- Best overall response (unconfirmed): CR ([1]; 0.75 mg QD oral, N = 3): 0 n (%)
- Best overall response (unconfirmed): Non-CR/non-PD ([1]; 0.75 mg QD oral, N = 3): 1 (33.3) n (%)
- Best overall response (unconfirmed): PD ([1]; 0.75 mg QD oral, N = 3): 2 (66.7) n (%)
- Best overall response (unconfirmed): PR ([1]; 0.75 mg QD oral, N = 3): 0 n (%)
- Best overall response (unconfirmed): SD ([1]; 0.75 mg QD oral, N = 3): 0 n (%)
- Disease control (CR + PR + SD + non-CR/non-PD) ([1]; 0.75 mg QD oral, N = 3): 1 (33.3) n (%)
- Objective response (CR + PR) ([1]; 0.75 mg QD oral, N = 3): 0 n (%)
- Best overall response (unconfirmed): CR ([1]; 1 mg QD oral, N = 6): 0 n (%)
- Best overall response (unconfirmed): Non-CR/non-PD ([1]; 1 mg QD oral, N = 6): 1 (16.7) n (%)
- Best overall response (unconfirmed): PD ([1]; 1 mg QD oral, N = 6): 3 (50.0) n (%)
- Best overall response (unconfirmed): PR ([1]; 1 mg QD oral, N = 6): 0 n (%)
- Best overall response (unconfirmed): SD ([1]; 1 mg QD oral, N = 6): 2 (33.3) n (%)
- Disease control (CR + PR + SD + non-CR/non-PD) ([1]; 1 mg QD oral, N = 6): 3 (50.0) n (%)
- Objective response (CR + PR) ([1]; 1 mg QD oral, N = 6): 0 n (%)
- Overall disease control rate (CR + PR + SD + non-CR/non-PD) ([1]; all 9 patients, 0.75 and 1 mg QD, unconfirmed responses): 44.4%
- Best overall response (unconfirmed): CR ([1]; total, 0.75 and 1 mg QD, N = 9): 0 n (%)
- Best overall response (unconfirmed): Non-CR/non-PD ([1]; total, 0.75 and 1 mg QD, N = 9): 2 (22.2) n (%)
- Best overall response (unconfirmed): PD ([1]; total, 0.75 and 1 mg QD, N = 9): 5 (55.6) n (%)
- Best overall response (unconfirmed): PR ([1]; total, 0.75 and 1 mg QD, N = 9): 0 n (%)
- Best overall response (unconfirmed): SD ([1]; total, 0.75 and 1 mg QD, N = 9): 2 (22.2) n (%)
- Disease control (CR + PR + SD + non-CR/non-PD) ([1]; total, 0.75 and 1 mg QD, N = 9): 4 (44.4) n (%)
- Objective response (CR + PR) ([1]; total, 0.75 and 1 mg QD, N = 9): 0 n (%)
- TEAE leading to death ([2]; 0.75 mg QD oral, N = 3): 0 n (%)
- TEAE leading to death ([2]; 1 mg QD oral, N = 6): 0 n (%)
- Dose reduction due to TEAE ([2]; human, in vivo): 1 (11.1) n (%)
- TEAE leading to death ([2]; total, 0.75 and 1 mg QD, N = 9): 0 n (%)
- PARP-trapping potential relative to other PARP inhibitors (PARP on DNA): approximately 100 times greater
- Dose proportionality of drug exposure (Cmax and AUC) ([3]; 1 mg dose level compared with 0.75 mg dose level): slightly higher than dose-proportional
- Cmax ([3]; human, plasma, po, 0.75 mg, multiple dose 0.75 mg QD oral, N = 3): 14.4 ng/mL
- half-life ([3]; human, plasma, po, 0.75 mg, plasma, single dose 0.75 mg oral, N = 3, mean (standard deviation)): 56.6 h
- Tmax ([3]; human, plasma, po, 0.75 mg, plasma, single dose 0.75 mg oral, N = 3, read-out: Tmax): 0.98 h
- Cmax ([3]; human, plasma, po, 0.75 mg, single dose 0.75 mg oral, N = 3): 7.24 ng/mL
- Cmax ([3]; human, plasma, po, 1 mg, multiple dose 1 mg QD oral, N = 6): 32.8 ng/mL
- Tmax ([3]; human, plasma, po, 1 mg, plasma, multiple dose 1 mg QD oral, N = 6, read-out: Tmax): 1.03 h
- half-life ([3]; human, plasma, po, 1 mg, plasma, single dose 1 mg oral, N = 6, mean (standard deviation)): 50.7 h
- Tmax ([3]; human, plasma, po, 1 mg, plasma, single dose 1 mg oral, N = 6, read-out: Tmax): 0.97 h
- Cmax ([3]; human, plasma, po, 1 mg, single dose 1 mg oral, N = 6): 13.8 ng/mL
- AUC ([3]; human, plasma, multiple dose 0.75 mg QD oral, N = 3): 127 ng·h/mL
- AUC ([3]; human, plasma, multiple dose 1 mg QD oral, N = 6): 245 ng·h/mL
- AUC(0-inf) ([3]; human, plasma, single dose 0.75 mg oral, N = 3): 108 ng·h/mL
- AUC(0-inf) ([3]; human, plasma, single dose 1 mg oral, N = 6): 200 ng·h/mL
- Cmin [3, 8]: 2.18 (8) ng/mL
- Tmax [3, 8]: 1.02 (1.0–1.9) h
- Cmin ([3]; plasma, multiple dose 1 mg QD oral, N = 6): 3.65 (49) ng/mL
- t1/2 (terminal half-life) ([3]; plasma, single dose 1 mg oral, N = 6, mean (standard deviation)): 50.73 (10.1) h
- Time to peak of mean plasma concentrations ([3]; single or multiple dosing at 0.75 mg QD or 1 mg QD): around 1 h
- Patients discontinued due to anemia [4]: 0.7%
- Patients discontinued due to hematologic toxicities [4]: 1.4%
